Experimental data published in US9765060B2 (Gilead Sciences, Inc., priority 2014, dated 2017).
Like-named read-outs stand apart in the source and are kept apart here.

Molecular target: PI3K isoform δ (Homo sapiens (Human), UniProt O00329)
Experiment: TR-FRET assay of enzymatic activity of class I PI3K isoforms
Conditions: TR-FRET, 2× Km ATP, 2 μM PIP2, incubated for 30 minutes at 25° C.
[1] = read-out: IC50 (nM) for PI3K isoform δ (Table 3)

Sequence of PI3K isoform δ (O00329 whole entry, canonical isoform): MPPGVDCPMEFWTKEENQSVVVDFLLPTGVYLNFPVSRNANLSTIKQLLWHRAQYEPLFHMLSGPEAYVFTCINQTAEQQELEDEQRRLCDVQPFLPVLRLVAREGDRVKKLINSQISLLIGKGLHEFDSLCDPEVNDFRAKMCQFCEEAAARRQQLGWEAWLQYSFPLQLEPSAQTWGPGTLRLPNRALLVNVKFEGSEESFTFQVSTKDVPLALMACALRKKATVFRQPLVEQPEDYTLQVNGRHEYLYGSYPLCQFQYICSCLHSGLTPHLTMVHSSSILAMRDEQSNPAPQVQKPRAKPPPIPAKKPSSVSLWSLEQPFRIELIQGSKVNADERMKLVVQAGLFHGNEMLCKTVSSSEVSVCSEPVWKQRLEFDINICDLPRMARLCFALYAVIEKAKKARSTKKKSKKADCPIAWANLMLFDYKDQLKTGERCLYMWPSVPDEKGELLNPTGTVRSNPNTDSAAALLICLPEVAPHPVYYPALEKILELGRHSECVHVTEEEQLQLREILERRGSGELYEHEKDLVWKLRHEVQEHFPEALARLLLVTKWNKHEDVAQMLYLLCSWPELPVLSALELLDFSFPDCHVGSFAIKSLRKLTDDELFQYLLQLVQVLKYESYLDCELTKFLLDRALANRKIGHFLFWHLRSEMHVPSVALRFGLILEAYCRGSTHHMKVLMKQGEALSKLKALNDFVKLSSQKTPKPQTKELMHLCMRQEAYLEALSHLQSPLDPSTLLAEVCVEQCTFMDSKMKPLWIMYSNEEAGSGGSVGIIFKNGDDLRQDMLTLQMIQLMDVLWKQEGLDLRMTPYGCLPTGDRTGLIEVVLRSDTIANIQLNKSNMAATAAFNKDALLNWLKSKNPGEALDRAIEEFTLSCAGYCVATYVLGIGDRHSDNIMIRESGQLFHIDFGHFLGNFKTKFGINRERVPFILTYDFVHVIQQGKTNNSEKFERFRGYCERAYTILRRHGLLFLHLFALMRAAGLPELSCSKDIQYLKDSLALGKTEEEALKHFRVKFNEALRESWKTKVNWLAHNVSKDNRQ
Sequence of PI3K isoform δ (P27986 whole entry partner, canonical isoform): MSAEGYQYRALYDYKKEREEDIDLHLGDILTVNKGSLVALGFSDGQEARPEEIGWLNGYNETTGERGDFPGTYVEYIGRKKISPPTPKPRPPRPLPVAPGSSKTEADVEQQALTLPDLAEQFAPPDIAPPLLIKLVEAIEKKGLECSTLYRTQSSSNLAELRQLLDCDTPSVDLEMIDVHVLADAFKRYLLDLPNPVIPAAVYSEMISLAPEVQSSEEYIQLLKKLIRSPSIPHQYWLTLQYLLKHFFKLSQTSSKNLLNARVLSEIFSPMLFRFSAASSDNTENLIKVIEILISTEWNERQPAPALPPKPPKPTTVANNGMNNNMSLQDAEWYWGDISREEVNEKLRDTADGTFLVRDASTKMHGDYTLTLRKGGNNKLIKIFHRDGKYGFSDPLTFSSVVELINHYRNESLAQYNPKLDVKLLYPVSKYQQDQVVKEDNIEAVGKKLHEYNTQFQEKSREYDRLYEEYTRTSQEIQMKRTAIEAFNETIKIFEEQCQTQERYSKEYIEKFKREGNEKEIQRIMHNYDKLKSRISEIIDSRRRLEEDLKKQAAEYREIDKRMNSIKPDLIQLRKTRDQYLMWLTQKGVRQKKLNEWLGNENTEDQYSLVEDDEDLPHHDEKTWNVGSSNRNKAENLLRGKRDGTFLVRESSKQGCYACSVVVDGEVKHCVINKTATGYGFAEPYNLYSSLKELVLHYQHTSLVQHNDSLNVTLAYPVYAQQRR
Source text: TR-FRET monitored the formation of 3,4,5-inositol triphosphate molecule that competed with fluorescently labeled PIP3 for binding to the GRP-1 pleckstrin homology domain protein. […] Class I PI3K isoforms were expressed and purified as heterodimeric recombinant proteins. All assay reagents and buffers for the TR-FRET assay were purchased from Millipore.

Compound | IC50 [1] [nM] | IC50 (read-out: IC50 (nM) for PI3K isoform δ (Table 2)) [nM]
C[C@H](Nc1nc(Cl)nc(N)c1C#N)c1nc2cccc(Cl)c2c(=O)n1-c1ccccc1 [Compound 104, (S)-4-amino-2-chloro-6-((1-(5-chloro-4-oxo-3-phenyl-3,4-dihydroquinazolin-2-yl)ethyl)amino)pyrimidine-5-carbonitrile] | 4 | 
C[C@H](Nc1nc(N)nc(Cl)c1C#N)c1nc2cccc(Cl)c2c(=O)n1-c1cc(F)cc(F)c1 [Compound 105, (S)-2-amino-4-chloro-6-((1-(5-chloro-3-(3,5-difluorophenyl)-4-oxo-3,4-dihydroquinazolin-2-yl)ethyl)amino)pyrimidine-5-carbonitrile] | 2 | 
C[C@H](Nc1nc(F)nc(N)c1C#N)c1nc2cccc(Cl)c2c(=O)n1-c1ccccc1 [Compound 106, (S)-4-amino-6-((1-(5-chloro-4-oxo-3-phenyl-3,4-dihydroquinazolin-2-yl)ethyl)amino)-2-fluoropyrimidine-5-carbonitrile] | 0.8 | 
N#Cc1c(N)nc(N)nc1N1C[C@H](NC(=O)C(F)F)C[C@H]1c1nc2cccc(Cl)c2c(=O)n1-c1ccccc1 [Compound 107, N-((3R,5S)-5-(5-chloro-4-oxo-3-phenyl-3,4-dihydroquinazolin-2-yl)-1-(2,6-diamino-5-cyanopyrimidin-4-yl)pyrrolidin-3-yl)-2,2-difluoroacetamide] | 0.4 | 
N#Cc1c(N)nc(N)nc1N1C[C@@H](NC(=O)C(F)(F)F)C[C@H]1c1nc2cccc(Cl)c2c(=O)n1-c1ccccc1 [Compound 108, N-((3S,5S)-5-(5-chloro-4-oxo-3-phenyl-3,4-dihydroquinazolin-2-yl)-1-(2,6-diamino-5-cyanopyrimidin-4-yl)pyrrolidin-3-yl)-2,2,2-trifluoroacetamide] | 2 | 
N#Cc1c(N)nc(N)nc1N1C[C@H](NC(=O)C(F)F)C[C@H]1c1nc2cccc(Cl)c2c(=O)n1-c1cc(F)cc(F)c1 [Compound 109, N-((3R,5S)-5-(5-chloro-3-(3,5-difluorophenyl)-4-oxo-3,4-dihydroquinazolin-2-yl)-1-(2,6-diamino-5-cyanopyrimidin-4-yl)pyrrolidin-3-yl)-2,2-difluoroacetamide] | 0.7 | 
N#Cc1c(N)nc(N)nc1N1C[C@H](NC(=O)C(F)F)C[C@H]1c1nc2cccc(F)c2c(=O)n1-c1cc(F)cc(F)c1 [Compound 111, N-((3R,5S)-1-(2,6-diamino-5-cyanopyrimidin-4-yl)-5-(3-(3,5-difluorophenyl)-5-fluoro-4-oxo-3,4-dihydroquinazolin-2-yl)pyrrolidin-3-yl)-2,2-difluoroacetamide] | 9 | 
N#Cc1c(N)nc(N)nc1N1C[C@H](NC(=O)CC2CC2)C[C@H]1c1nc2cccc(Cl)c2c(=O)n1-c1ccccc1 [Compound 114, N-((3R,5S)-5-(5-chloro-4-oxo-3-phenyl-3,4-dihydroquinazolin-2-yl)-1-(2,6-diamino-5-cyanopyrimidin-4-yl)pyrrolidin-3-yl)-2,2-cyclopropylacetamide] | 0.9 | 
N#Cc1c(N)nc(N)nc1N1C[C@H](NC(=O)CN)C[C@H]1c1nc2cccc(Cl)c2c(=O)n1-c1ccccc1 [Compound 115, 2-amino-N-((3R,5S)-5-(5-chloro-4-oxo-3-phenyl-3,4-dihydroquinazolin-2-yl)-1-(2,6-diamino-5-cyanopyrimidin-4-yl)pyrrolidin-3-yl)acetamide] | 64 | 
N#Cc1c(N)nc(N)nc1N1C[C@H](NC(=O)CN)C[C@H]1c1nc2cccc(Cl)c2c(=O)n1-c1cc(F)cc(F)c1 [Compound 116, 2-amino-N-((3R,5S)-5-(5-chloro-3-(3,5-difluorophenyl)-4-oxo-3,4-dihydroquinazolin-2-yl)-1-(2,6-diamino-5-cyanopyrimidin-4-yl)pyrrolidin-3-yl)acetamide] | 7 | 
C[C@H](Nc1ncnc(N)c1C#N)c1nc2cccc(Cl)c2c(=O)n1-c1ccccc1 [Compound Y, (S)-4-amino-6-((1-(5-chloro-4-oxo-3-phenyl-3,4-dihydroquinazolin-2-yl)ethyl)amino)pyrimidine-5-carbonitrile, reference compound] |  | 0.4
N-((3R,5S)-5-(5-chloro-3-(3-(difluorophenyl)-5-fluorophenyl)-4-oxo-3,4-dihydroquinazolin-2-yl)-1-(2,6-diamino-5-cyanopyrimidin-4-yl)pyrrolidin-3-yl)-2,2-difluoroacetamide [Compound 110] | 2 | 
